Assay results from patent publication US20240139195A1, “METHODS OF TREATING CHRONIC ACTIVE ANTIBODY-MEDIATED REJECTION USING BTK INHIBITORS” (BeiGene Switzerland GmbH, priority 2021, published 2024).
Entries after “also recorded” stand apart in the source; their conditions may differ.

Experiments:
[1] = system: donor specific alloantibody (DSA); assay: Donor specific alloantibody (DSA) analysis by flow cytometry; type: in vivo, Lewis rats; conditions: allogeneic recipients, vs vehicle
Method: (§1) Left kidney transplantation was performed between male F344 and Lewis rats [Vogelbacher R, et al. Nephrology, dialysis, transplantation: official publication of the European Dialysis and Transplant Association—European Renal Association. 2010; 25: 3764-73.]. The average time of cold ischemia time and warm ischemia time was 25 and 40 minutes, respectively. In order to allow the production of alloantibodies, no immunosuppressive agents were used within the first 2 weeks after kidney transplantation.
Spleen lymphocytes of normal F344 rats were extracted using lymphocyte separation medium. Serum samples of allogeneic rats were incubated with spleen lymphocytes at room temperature for 30 minutes. Spleen lymphocytes were washed for three times and then incubated with a fluorescein isothiocyanate (FITC)-labeled anti-rat IgG antibody (BD Biosciences) at room temperature for 30 min. Mean fluorescence intensity (MFI) was determined in order to assess DSA levels by flow cytometry (Beckman DxFLEX, Beckman, Brea, CA) [Zhao D, et al. American journal of transplantation: official journal of the American Society of Transplantation and the American Society of Transplant Surgeons. 2018; 18: 1083-95; Liao T, et al. Frontiers in immunology. […]

renal allografts = assay: Histological examination of renal allografts (H&E, PAS, Masson staining) for severity of CAMR; type: in vivo, Lewis rats
Method: Left kidney transplantation was performed between male F344 and Lewis rats [Vogelbacher R, et al. Nephrology, dialysis, transplantation: official publication of the European Dialysis and Transplant Association—European Renal Association. 2010; 25: 3764-73.]. […] In order to allow the production of alloantibodies, no immunosuppressive agents were used within the first 2 weeks after kidney transplantation. […] Histological analysis was performed by using H&E, PAS and Masson staining. H&E, PAS and Masson trichome staining were performed as detailed elsewhere[Wang Z, et al. Journal of cellular and molecular medicine. 2017; 21: 2359-69.], which was used to evaluate the severity of CAMR. The diagnostic criteria of CAMR was according to Banff 2017 criteria. Characteristics of CAMR were defined as arterial intimal fibrosis, positive C4d staining in PTC and DSA. Measurement of arteriosclerosis caused by intimal fibrosis was performed for the areas surrounded by the luminal surface and internal elastic lamina of each vessel. The area determined by the internal elastic lamina subtraction of the internal elastic lamina to the luminal area was considered as the intimal area. Quantitative analysis the morphometric change of the kidney sections was performed according to results of two pathologists blinded to the experimental design independently.

[2] = system: C4d and IgG deposition in allograft kidney; assay: Immunofluorescence staining of C4d and IgG deposition in allograft kidney; type: in vivo, Lewis rats; conditions: 2 mg/kg
Method: as §1

[3] = system: T cells, B cells and plasma cells in peripheral blood; assay: Flow cytometry of T cells, B cells and plasma cells in rat peripheral blood; type: in vivo; conditions: 8 weeks after kidney transplantation
Method: PBMCs were doubly incubated with FITC-conjugated anti-CD45R (2.5 μg/10^6 cells; eBioscience, Thermo Fisher Scientific, USA) and APC-conjugated anti-CD19 (2 μg/10^6 cells; Bioss, China), FITC-conjugated anti-CD45R (2.5 μg/10^6 cells; eBioscience, Thermo Fisher Scientific, USA) and Alexa Fluor 647 (conjugated anti-CD138 (0.1 μg/10^6 cells; Abcam, USA), APC-conjugated anti-CD3 (3 μg/10^6 cells; BioLegend, USA) and FITC-conjugated anti-CD4 (0.5 μg/10^6 cells; BioLegend, USA) as well as APC-conjugated anti-CD3 (3 μg/10^6 cells; BioLegend, USA) and Percp-eFluor710-conjugated anti-CD8 (0.3 μg/10^6 cells; BioLegend, USA), respectively. The percentages of CD45R^+CD19^+B cells, CD45R^−CD138^+ plasma cells, and CD3^+CD4^+ and CD3^+CD8^+ T cells were determined by flow cytometry (BD Accuri C6, BD Biosciences).
In order to investigate the immune state of syngenetic and allogenic rats, flow cytometry was used to test the amounts of T cells, B cells, and plasma cells.

[4] = system: TNF-α, TGF-β, IL-17A, IL-35, IL-10; assay: ELISA of rat serum cytokines; type: in vivo; conditions: 12 weeks after kidney transplantation, allogeneic recipients vs vehicle
Method: The levels of rat serum TNF-α, TGF-β, IL-17A, IL-35, IL-10 were quantified by rat TNF-α ELISA kit (MUTISCIENCES; China), rat TGF-β ELISA kit (MUTISCIENCES; China), rat IL-35 ELISA kit (MUTISCIENCES; China), rat IL-17A ELISA kit (MUTISCIENCES; China) and rat IL-10 ELISA kit (MUTISCIENCES; China), respectively. The assays were performed as described in the manufacturer's instructions.
At 12 weeks after kidney transplantation, serum isolated from rat peripheral blood was used to detect the concentration of inflammatory cytokines.

[5] = Renal function assessment (blood creatinine and urea nitrogen) after resection of native right kidney; type: in vivo, Lewis rats; conditions: allogeneic recipients, right kidney resected 10 days after transplantation, vs vehicle
Method: Concentrations of rat blood creatinine and urea nitrogen were tested by instructions of manufacturer of the kits (JianCheng, China).
(§2) After the resection of right kidney, the blood concentration of creatinine and urea nitrogen continued to deteriorate and reach the summit at 12 weeks after transplantation.

[6] = Long-term survival of allogeneic kidney transplant recipients; type: in vivo, Lewis rats; conditions: right kidney resected 10 days after transplantation, vs vehicle, log-rank P<0.05
From the text: as §2

[7] = system: T cells, B cells, plasma cells and macrophages in allograft kidneys; conditions: 12 weeks after transplantation
Method: Recipients with phosphate buffered saline alone were considered as the vehicle control. At 4, 8, 12 and 16 weeks, organs were harvested and divided into two parts, which were fixed in paraffin or snap-frozen in N2 and stored at −80° C. Peripheral blood mononuclear cells (PBMCs) were separated from the rat peripheral blood to be used in flow cytometry.
Paraffin-embedded sections (4 m) were incubated with primary antibodies against anti-phospho-BTK (1:100; Santa Cruz, USA), C4d (1:200, BioLegend, USA) CD3 (1:200, BioLegend, USA), CD4 (1:200, BioLegend, USA), CD8 (1:200, BioLegend, USA), CD19 (1:200, Bioss, China), CD138 (1:100, Abcam) and CD68 (1:100, Abcam) overnight at 4° C. in a humidified chamber. The appropriate isotype-matched IgG was used as the negative control. […] Quantitative analysis of positive cells (T cells, B cells, plasma cell and macrophages) and IgG positive area was analyzed by using Image-Pro Plus (Media Cybernetics, Rockville, MD). Quantitative analysis of C4d positive PTC was performed according to outcomes of two independent pathologists blinded to the experimental design.

[8] = after treatment for 10 weeks, 2 mg/kg, vs allograft kidneys

C=CC(=O)N1CCC([C@@H]2CCNc3c(C(N)=O)c(-c4ccc(Oc5ccccc5)cc4)nn32)CC1 [Compound 1, (S)-7-(1-acryloylpiperidin-4-yl)-2-(4-phenoxyphenyl)-4,5,6,7-tetrahydropyrazolo-[1,5-a]pyrimidine-3-carboxamide]
production of DSA ([1]; treatment from second week after transplantation, 8, 12, 16 weeks): significantly reduced; also recorded: prevented further production
level of DSA ([1]; until end of treatment at 16 weeks): relatively low level
lesion area of interstitial fibrosis (PAS and Masson staining) (renal allografts; [8]): significantly ameliorated
lesion area of tubular atrophy (PAS and Masson staining) (renal allografts; [8]): significantly ameliorated
glomerular sclerosis (H&E staining) (renal allografts; allogeneic recipients, 2 mg/kg, vs vehicle): significantly ameliorated
CAMR (fibrous intimal thickening in arteries, C4d deposition in PTC, increase of DSA) (renal allografts; allograft kidney, treatment from second week after transplantation): significantly alleviated
deposition of C4d in peritubular capillaries (PTC) ([2]; allograft kidney): dramatically reduced
positive (lesion) area of IgG ([2]; allograft kidneys after treatment, almost 30% without treatment): less than 10%
effect on T cells (CD3+CD4+, CD3+CD8+) in peripheral blood ([3]; 2 mg/kg): sight effect; also recorded: slight effects
elevation of CD19+CD45R+ B cells in peripheral blood ([3]; 2 mg/kg for 6 weeks): significantly inhibited increases; also recorded: significantly suppressed
elevation of plasma cells in peripheral blood ([3]; 2 mg/kg for 6 weeks): significantly inhibited increases; also recorded: significantly suppressed
secretion of IL-10 (serum) [4]: further increased
secretion of IL-35 (serum) [4]: further increased
secretion of TGF-β (serum) [4]: further increased
serum level of IL-17A [4]: reduce; also recorded: effectively decreased
serum level of TNF-α [4]: reduce; also recorded: effectively decreased
blood creatinine [5]: remarkably inhibited the increases; also recorded: relatively low levels
blood urea nitrogen [5]: remarkably inhibited the increases; also recorded: relatively low levels
survival rate of allogeneic recipients [6]: significantly increased; also recorded: higher
infiltration of B cells in allograft kidney [7]: remarkably reduced; also recorded: significantly reduced
infiltration of T cells in allograft kidney [7]: remarkably reduced; also recorded: significantly reduced
infiltration of macrophages in allograft kidney [7]: remarkably reduced; also recorded: decrease
infiltration of plasma cells in allograft kidney [7]: significantly reduced
